Data published in patent US20210156844A1, “TMEM16A Modulation for Diagnostic or Therapeutic Use in Pulmonary Hypertension (PH)” (Bayer Aktiengesellschaft, priority 2017, published 2021).

How the values were obtained:
[1] = system: monocrotaline (MCT)-treated rats; experiment: Acute hemodynamic effects of benzbromarone in monocrotaline (MCT)-treated rats; format: in vivo, rat; conditions: single i.v. bolus of 300 μM
Description: Male Sprague-Dawley rats (body weight: approx. 250 g, Charles River) received a single subcutaneous injection of monocrotaline (MCT, 60 mg/kg, n=16) or vehicle (control group, n=8). Since significant RVSP increase and PA muscularization had been detected as early as 12 days after the injection of MCT58, two weeks after monocrotaline treatment rats were randomly ordered into two groups. Subcutaneous slow-release pellets (Innovative Research of America) that contained either benzbromarone (MCT+BBR, n=8) or vehicle (MCT+Veh, n=8) were implanted. Four weeks after monocrotaline treatment all rats were subjected to echocardiography and in vivo hemodynamic measurements, thereafter they were sacrificed for organ collection. In rats, in vivo hemodynamic measurements were conducted as described above for the mice, with the exception that for the right ventricular and the systolic blood pressures, 2 F Millar Catheters (SPR-513 and SPR-320, respectively) were used. The above described control and MCT+Veh groups were included in this study. Benzbromarone was injected into the left jugular vein as a single bolus ([…], i.v. in 100 μl saline) and pressures were monitored until a maximum effect was observed (approx. 10 minutes).

hypoxia-exposed mice = experiment: Acute hemodynamic effects of benzbromarone in hypoxia-exposed mice; format: in vivo, mouse; conditions: single i.v. bolus of 300 μM
Excerpt: The experimental protocol is depicted in FIG. 12A. Male C57BL/6J mice (Charles River) at the age of 10 weeks were either placed into a hypoxic chamber (FiO2=0.1, n=16) for 4 weeks, or kept at normoxic conditions (control group, FiO2=0.21, n=8). According to the reports of Fagan et al. (Fagan, K A, et al. Am. J. Physiol. Lung Cell. Mol. Physiol. (2004) 287, L656-664) and Tuscherer et al. (Tuchscherer, H A, et al., J. Biomech. (2007) 40, 993-1001), a significant increase in the right ventricular systolic pressure (RVSP) and PA muscularization can be observed already after 14 days of hypoxia exposure. Therefore, mice subjected to hypoxia were randomized into two groups at the end of the second week. […]
In mice, in vivo hemodynamics was performed under constant inhalation of 2% isoflurane/oxygen, using the closed chest technique through a small incision on the submandibular area. Body temperature was monitored and maintained at 37±1° C. A limb-lead ECG was recorded and the heart rate was kept constant to avoid changes in the sympathetic tone during the experiment. The right ventricle (RV) was catheterized via the right jugular vein using a 1.4 F Millar catheter (SPR-671, Millar, Houston Tex., USA) and right ventricular systolic pressure (RVSP) was measured continuously. […]

CCc1oc2ccccc2c1C(=O)c1cc(Br)c(O)c(Br)c1 [benzbromarone, (2-Ethyl-3-benzofuranyl)-(3,5-dibrom-4-hydroxyphenyl)ketone]
RVSP ([1]; MCT-treated rats): significant decrease | RVSP in the control animals ([1]; vehicle-treated control rats): without affecting | RVSP (hypoxia-exposed mice; mice exposed to 4 weeks of hypoxia): significant decrease | RVSP in the control animals (hypoxia-exposed mice; normoxia control mice): without affecting
